Read-outs that look alike come from different tables or passages of the source. Some results are limits rather than exact numbers.

For experiment [1], the target named is T1, human recombinant HDAC1 (Homo sapiens, UniProt Q13547).
T1 construct: purchased Enzo Life Science, Inc. BML-SE456
In words: HDAC1 enzyme activity inhibition (HDAC Fluorimetric Drug Discovery Kit). It is filed as biochemical. To be noted: read-out: HDAC1. In outline:
(§1)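 Enzyme at 0.3 µg per well was reacted with 10 μM fluorogenic substrate in presence of 5-fold diluted compound, 30° C for 60 min.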

Experiment [2] has as its target T2, human recombinant HDAC6 (Homo sapiens, UniProt Q9UBN7).
T2 construct: purchased Calbiochem Inc. 382180
T2 sequence (Q9UBN7 1-1215): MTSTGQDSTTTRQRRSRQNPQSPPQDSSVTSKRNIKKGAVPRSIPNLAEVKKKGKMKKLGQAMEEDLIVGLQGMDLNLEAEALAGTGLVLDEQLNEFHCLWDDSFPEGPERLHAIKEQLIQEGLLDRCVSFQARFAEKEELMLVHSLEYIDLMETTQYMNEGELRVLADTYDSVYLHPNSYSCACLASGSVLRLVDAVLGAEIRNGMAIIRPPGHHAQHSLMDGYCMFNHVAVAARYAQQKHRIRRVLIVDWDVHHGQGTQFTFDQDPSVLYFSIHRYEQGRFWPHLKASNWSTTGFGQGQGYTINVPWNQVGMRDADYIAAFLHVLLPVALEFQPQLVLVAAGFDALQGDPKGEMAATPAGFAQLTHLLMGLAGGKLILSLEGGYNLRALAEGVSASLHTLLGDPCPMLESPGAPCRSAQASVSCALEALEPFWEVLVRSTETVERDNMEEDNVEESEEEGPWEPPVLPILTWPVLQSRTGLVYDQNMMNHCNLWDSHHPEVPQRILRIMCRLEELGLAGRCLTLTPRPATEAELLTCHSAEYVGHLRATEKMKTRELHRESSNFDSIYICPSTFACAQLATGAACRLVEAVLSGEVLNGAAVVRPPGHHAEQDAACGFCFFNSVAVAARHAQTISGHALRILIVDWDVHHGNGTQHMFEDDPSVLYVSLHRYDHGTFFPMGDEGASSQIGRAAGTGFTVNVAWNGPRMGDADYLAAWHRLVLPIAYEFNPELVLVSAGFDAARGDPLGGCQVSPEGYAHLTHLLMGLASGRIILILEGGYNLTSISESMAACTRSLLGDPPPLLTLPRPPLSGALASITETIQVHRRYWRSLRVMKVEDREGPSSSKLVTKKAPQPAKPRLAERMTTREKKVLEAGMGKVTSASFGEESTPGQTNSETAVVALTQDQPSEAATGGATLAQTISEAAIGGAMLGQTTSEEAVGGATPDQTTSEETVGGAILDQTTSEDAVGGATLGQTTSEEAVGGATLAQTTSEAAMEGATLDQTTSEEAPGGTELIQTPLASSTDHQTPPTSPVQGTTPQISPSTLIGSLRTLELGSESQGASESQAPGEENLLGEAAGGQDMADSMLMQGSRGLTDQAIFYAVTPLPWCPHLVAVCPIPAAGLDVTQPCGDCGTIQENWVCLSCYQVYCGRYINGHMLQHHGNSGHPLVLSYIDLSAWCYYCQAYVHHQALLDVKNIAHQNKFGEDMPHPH
The experiment can be described thus: HDAC6 enzyme activity inhibition (HDAC Fluorimetric Drug Discovery Kit). It is filed as biochemical. In outline: as §1

For experiment [3], the system named is hippocampal neurons from a Sprague-Dawley (SD) rat fetus. In words: Effect of HDAC6-specific inhibitor on axonal transport of mitochondria in amyloid-beta treated neurons. It is filed as cell-based. The following applies: transport velocity of mitochondria in neuronal axon after normalization; vehicle = 100%, amyloid beta treatment group = 0%; compound treatment for three hours. The procedure: On the 17th to 18th days (E17-18) of insemination, the hippocampal neurons from a Sprague-Dawley (SD) rat fetus were cultured in a culture container for imaging, which had been coated with extracellular matrix, and were treated with amyloid-beta protein fragments at a concentration of […]. In 24 hours later, the neurons were treated with the compound on the 8th day of in vitro culture. In three hours later, the resulting neurons were treated with MitoTracker Red CMXRos (Life Technologies, NY, USA) for last five minutes to stain mitochondria. An image on the axonal transport of stained neuron mitochondria was taken with a confocal microscope (Leica SP8; Leica microsystems, UK) at an interval of one second for one minute to measure a transport velocity of each mitochondria per second with an IMARIS analysis program (BITPLANE, Zurich, Switzerland).
In result, after setting a section, in which the group treated with amyloid-beta had shown a significant decrease in the transport velocity of mitochondria compared to a vehicle, it was confirmed for 1,3,4-oxadiazole triazol derivative compounds of the present invention, stereoisomers thereof or pharmaceutically acceptable salts thereof that the vehicles is represented as 100%, the amyloid beta treatment group is represented as 0%, a velocity distribution of the compound after normalization is represented as *, 0%˜50%; **, 50%˜100%; ***, >100%.

The mark [4] stands for this setting: human recombinant HDAC1, IC50 calculated with GraphPad Prism.
Setting [5] is: human recombinant HDAC6, IC50 calculated with GraphPad Prism.

T1 sequence (Q13547 whole entry): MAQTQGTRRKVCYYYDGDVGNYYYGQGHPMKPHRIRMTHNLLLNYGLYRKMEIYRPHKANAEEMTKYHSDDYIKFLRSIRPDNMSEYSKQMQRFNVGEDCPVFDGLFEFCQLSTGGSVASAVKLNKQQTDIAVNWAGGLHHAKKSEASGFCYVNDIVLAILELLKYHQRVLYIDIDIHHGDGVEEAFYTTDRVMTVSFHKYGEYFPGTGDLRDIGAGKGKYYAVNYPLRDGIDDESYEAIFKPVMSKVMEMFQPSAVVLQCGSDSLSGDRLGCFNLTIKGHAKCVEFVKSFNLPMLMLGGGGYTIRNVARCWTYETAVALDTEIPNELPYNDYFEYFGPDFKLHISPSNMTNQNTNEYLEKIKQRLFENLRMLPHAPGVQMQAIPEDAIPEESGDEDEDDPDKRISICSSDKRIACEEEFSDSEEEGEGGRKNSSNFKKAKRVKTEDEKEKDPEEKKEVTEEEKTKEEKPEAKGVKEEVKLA

With `Fc1cc(-c2nnc(C(F)F)o2)ccc1Cn1cc(-c2ccc3[nH]ccc3c2)nn1` [Compound 4135, 2-(4-((4-(1H-indol-5-yl)-1H-1,2,3-triazol-1-yl)methyl)-3-fluorophenyl)-5-(difluoromethyl)-1,3,4-oxadiazole], the figures for the IC50 in experiment [1] (setting [4]) and in experiment [2] (setting [5]) were greater than 50000 nM and 16.7 nM, respectively. Also, the “HDAC6 selectivity (fold)” value in experiment [2] (HDAC1 IC50 / HDAC6 IC50) is listed as 2941 fold. Also, the “Velocity distribution (%)” value in experiment [3] is reported as “** (**, 50%˜100%)”.

For `FC(F)c1nnc(-c2ccc(Cn3cc(-c4cccc(N5CCN(C6COC6)CC5)c4)nn3)cc2)o1` [Compound 4370, 2-(difluoromethyl)-5-(4-((4-(3-(4-(oxetan-3-yl)piperazin-1-yl)phenyl)-1H-1,2,3-triazol-1-yl)methyl)phenyl)-1,3,4-oxadiazole], the IC50 was greater than 50000 nM in experiment [1] (setting [4]) and 69.9 nM in experiment [2] (setting [5]). Moreover, the “HDAC6 selectivity (fold)” value in experiment [2] (HDAC1 IC50 / HDAC6 IC50) is recorded as 715 fold. The “Velocity distribution (%)” value in experiment [3] is “*** (***, >100%)”.

For the molecule `FC(F)c1nnc(-c2ccc(Cn3cc(-c4ccccn4)nn3)nc2)o1` [Compound 3881, 2-(difluoromethyl)-5-(6-((4-(pyridin-2-yl)-1H-1,2,3-triazol-1-yl)methyl)pyridin-3-yl)-1,3,4-oxadiazole], the IC50 is greater than 50000 nM in experiment [1] (setting [4]) and 34 nM in experiment [2] (setting [5]). Also, the “HDAC6 selectivity (fold)” value in experiment [2] (HDAC1 IC50 / HDAC6 IC50) turned out to be 1470 fold. Besides, the “Velocity distribution (%)” value in experiment [3] is “*** (***, >100%)”.

On to `CC(C)N1CCC(c2cccc(-c3cn(Cc4ccc(-c5nnc(C(F)F)o5)cn4)nn3)c2)CC1` [Compound 4012, 2-(difluoromethyl)-5-(6-((4-(3-(1-isopropylpiperidin-4-yl)phenyl)-1H-1,2,3-triazol-1-yl)methyl)pyridin-3-yl)-1,3,4-oxadiazole], for which the values for the IC50 in experiment [1] (setting [4]) and in experiment [2] (setting [5]) were greater than 50000 nM and 21.2 nM, respectively. Besides, the “HDAC6 selectivity (fold)” value in experiment [2] (HDAC1 IC50 / HDAC6 IC50) came to 2358 fold. In experiment [3], the “Velocity distribution (%)” value was “*** (***, >100%)”.

On to `CN1CCN(c2cccc(-c3cn(Cc4ccc(-c5nnc(C(F)F)o5)cc4)nn3)c2)CC1` [Compound 4336, 2-(difluoromethyl)-5-(4-((4-(3-(4-methylpiperazin-1-yl)phenyl)-1H-1,2,3-triazol-1-yl)methyl)phenyl)-1,3,4-oxadiazole], for which the values for the IC50 in experiment [1] (setting [4]) and in experiment [2] (setting [5]) were greater than 50000 nM and 32.4 nM, respectively. For the same molecule, the “HDAC6 selectivity (fold)” value in experiment [2] (HDAC1 IC50 / HDAC6 IC50) came to 1543 fold. Further, the “Velocity distribution (%)” value in experiment [3] is “*** (***, >100%)”.

For `CC(C)N1CCc2ccc(-c3cn(Cc4ccc(-c5nnc(C(F)F)o5)cn4)nn3)cc2C1` [Compound 4210, 2-(difluoromethyl)-5-(6-((4-(2-isopropyl-1,2,3,4-tetrahydroisoquinolin-7-yl)-1H-1,2,3-triazol-1-yl)methyl)pyridin-3-yl)-1,3,4-oxadiazole], the IC50 was greater than 50000 nM in experiment [1] (setting [4]) and 51.9 nM in experiment [2] (setting [5]). Also, the “HDAC6 selectivity (fold)” value in experiment [2] (HDAC1 IC50 / HDAC6 IC50) is given as 963 fold. In experiment [3], the “Velocity distribution (%)” value is “* (*, 0%˜50%)”.

Regarding `Fc1cc(-c2nnc(C(F)F)o2)ccc1Cn1cc(-c2cccc3[nH]ncc23)nn1` [Compound 4348, 2-(4-((4-(1H-indazol-4-yl)-1H-1,2,3-triazol-1-yl)methyl)-3-fluorophenyl)-5-(difluoromethyl)-1,3,4-oxadiazole], the IC50 in experiment [1] (setting [4]) is greater than 50000 nM; in experiment [2] (setting [5]), 6.8 nM. The “HDAC6 selectivity (fold)” value in experiment [2] (HDAC1 IC50 / HDAC6 IC50) stood at 7352 fold. For the same molecule, the “Velocity distribution (%)” value in experiment [3] was “** (**, 50%˜100%)”.

Turning to `Fc1cc(-c2nnc(C(F)F)o2)ccc1Cn1cc(-c2ccc3c(c2)CCN(C2CCC2)C3)nn1` [Compound 4361, 2-(4-((4-(2-cyclobutyl-1,2,3,4-tetrahydroisoquinolin-6-yl)-1H-1,2,3-triazol-1-yl)methyl)-3-fluorophenyl)-5-(difluoromethyl)-1,3,4-oxadiazole], the IC50 is greater than 50000 nM in experiment [1] (setting [4]) and 74.8 nM in experiment [2] (setting [5]). Moreover, the “HDAC6 selectivity (fold)” value in experiment [2] (HDAC1 IC50 / HDAC6 IC50) was 668 fold. Besides, the “Velocity distribution (%)” value in experiment [3] is “** (**, 50%˜100%)”.

On to `Fc1cccc(-c2cn(Cc3ccc(-c4nnc(C(F)F)o4)cn3)nn2)c1` [Compound 3854, 2-(difluoromethyl)-5-(6-((4-(3-fluorophenyl)-1H-1,2,3-triazol-1-yl)methyl)pyridin-3-yl)-1,3,4-oxadiazole], for which the IC50 is greater than 50000 nM in experiment [1] (setting [4]) and 39.7 nM in experiment [2] (setting [5]). Further, the “HDAC6 selectivity (fold)” value in experiment [2] (HDAC1 IC50 / HDAC6 IC50) was 1259 fold. For the same molecule, the “Velocity distribution (%)” value in experiment [3] is recorded as “*** (***, >100%)”.

Take `Cc1cc2ccc(-c3cn(Cc4ccc(-c5nnc(C(F)F)o5)cn4)nn3)cc2[nH]1` [Compound 4287, 2-(difluoromethyl)-5-(6-((4-(2-methyl-1H-indol-6-yl)-1H-1,2,3-triazol-1-yl)methyl)pyridin-3-yl)-1,3,4-oxadiazole]: the IC50 in experiment [1] (setting [4]) is greater than 50000 nM; in experiment [2] (setting [5]) it was 23.9 nM. Further, in experiment [2] (HDAC1 IC50 / HDAC6 IC50), the “HDAC6 selectivity (fold)” value was 2092 fold. Moreover, the “Velocity distribution (%)” value in experiment [3] is “*** (***, >100%)”.

Consider `FC(F)c1nnc(-c2ccc(Cn3cc(-c4ccnc5[nH]ccc45)nn3)nc2)o1` [Compound 3840, 2-(6-((4-(1H-pyrrolo[2,3-b]pyridin-4-yl)-1H-1,2,3-triazol-1-yl)methyl)pyridin-3-yl)-5-(difluoromethyl)-1,3,4-oxadiazole], for which the IC50 in experiment [1] (setting [4]) was greater than 50000 nM; in experiment [2] (setting [5]) it was 8.8 nM. Also, in experiment [2] (HDAC1 IC50 / HDAC6 IC50), the “HDAC6 selectivity (fold)” value is recorded as 5681 fold. The “Velocity distribution (%)” value in experiment [3] is “** (**, 50%˜100%)”.

For `O=C(c1cccc(-c2cn(Cc3ccc(-c4nnc(C(F)F)o4)cn3)nn2)c1)N1CCC1` [Compound 3886, Azetidin-1-yl(3-(1-((5-(5-(difluoromethyl)-1,3,4-oxadiazol-2-yl)pyridin-2-yl)methyl)-1H-1,2,3-triazol-4-yl)phenyl)methanone], the IC50 is greater than 50000 nM in experiment [1] (setting [4]) and 44.7 nM in experiment [2] (setting [5]). The “HDAC6 selectivity (fold)” value in experiment [2] (HDAC1 IC50 / HDAC6 IC50) was 1118 fold. Further, the “Velocity distribution (%)” value in experiment [3] is listed as “* (*, 0%˜50%)”.

`FC(F)c1nnc(-c2ccc(Cn3cc(-c4cccc(CN5CCOCC5)c4)nn3)nc2)o1` [Compound 3916, 4-(3-(1-((5-(5-(difluoromethyl)-1,3,4-oxadiazol-2-yl)pyridin-2-yl)methyl)-1H-1,2,3-triazol-4-yl)benzyl)morpholine]: the figures for the IC50 in experiment [1] (setting [4]) and in experiment [2] (setting [5]) were greater than 50000 nM and 28.5 nM, respectively. Also, the “HDAC6 selectivity (fold)” value in experiment [2] (HDAC1 IC50 / HDAC6 IC50) worked out at 1754 fold. Also, the “Velocity distribution (%)” value in experiment [3] is “*** (***, >100%)”.

`Fc1cc(-c2nnc(C(F)F)o2)cnc1Cn1cc(-c2ccc(CN3CCC3)cc2)nn1` [Compound 18306, 2-(6-((4-(4-(azetidin-1l-ylmethyl)phenyl)-1H-1,2,3-triazol-1-yl)methyl)-5-fluoropyridin-3-yl)-5-(difluoromethyl)-1,3,4-oxadiazole]: the IC50 is greater than 50000 nM in experiment [1] (human recombinant HDAC1, Fluor de Lys substrate, 30° C. 60 minutes) and 42.2 nM in experiment [2] (human recombinant HDAC6, same protocol as HDAC1). The “HDAC6 selectivity (fold)” value in experiment [2] (HDAC6 over HDAC1) is 1184 fold. For the same molecule, the “Velocity distribution (%)” value in experiment [3] is given as “*** (***, >100%)”.

The values above are taken from US20230257372A1 (CHONG KUN DANG PHARMACEUTICAL CORP., priority 2020, published 2023).
